Our source for the minimal effective concentration, melting point and EC200 values is patent US7659267B2, “1,3-Benzothiazinone derivatives, process for producing the same use thereof” (Takeda Pharmaceutical Company Limited, priority 2002, dated 2010).

Data set [1] relates to primary cardiomyocytes from newborn rats. The data set is described as follows: Cardiomyocyte apoptosis inhibitory activity (serum-free culture, viable cell number by WST-8). As to conditions: Rattus norvegicus, 96 h, mean of three independent experiments, concentration required to increase the mean viable cell number by 50% vs. no test compound, serum-free Medium 199, 4 days, read-out: Minimum Effective Concentration. It counts as cell-based. From the text: Cardiomyocyte Apoptosis Inhibitory Activity
Newborn rats (within 1 day after birth) were obtained from pregnant Wistar rats purchased from Charles River Japan, Inc., anesthetized under ether, and sterilized with 70% ethanol. Then the heart was excised with tweezers. The excised heart was washed with a phosphate buffered saline (T900; manufactured by Takara) and cut into pieces with surgical scissors. The tissue pieces were washed 4 to 5 times with a phosphate buffered saline to remove a majority of blood-derived non-myocardial cells. To the tissue pieces derived from 10 newborns, 5 ml of enzyme solution [solution prepared by dissolving trypsin (1.25 mg)(manufactured by Difco) and collagenase (0.25 mg)(manufactured by Sigma) in phosphate buffered saline (PBS)(1 ml)] was added and the mixture was stirred with a stirrer for 15 minutes while maintaining at 37° C. After 2.5 ml of the enzyme solution was added thereto, the mixture was stirred for further 15 minutes. This procedure was repeated twice. Subsequently, Medium 199 (manufactured by Gibson) containing 10% fetal calf serum (manufactured by Biowiker) was added in a half volume of the enzyme solution to terminate the enzyme reaction. The cells were filtered through a cell strainer (manufactured by Falcon) and then centrifuged at 400×g for 5 minutes to collect the cells.
The cells thus collected from the 10 newborns were suspended in 50 ml of Medium 199 containing 10% fetal calf serum. The suspension was plated onto 100 mm Petri dishes (manufactured by Iwaki) in a volume of 10 ml each/dish and cultured for 1 hour in a CO2 incubator set at 5% CO2 and 37° C. The cells were then recovered, filtered through a cell strainer and centrifuged at 400×g for 5 minutes to collect the primary cardiomyocytes derived from the newborn rats.
Then, the cardiomyocytes from the newborn rats (10) were suspended in 2 ml of hypotonic solution [prepared by dissolving NH4Cl (8.29 g), KHCO3 (1.0 g), 37 mg of EDTA/2Na (disodium ethylenediaminetetraacetate)(manufactured by Dojin Chemical Laboratory) in water (1 L)] and the suspension was allowed to stand for 3 minutes to disrupt erythrocytes. After 10 ml of Medium 199 containing 10% fetal calf serum was added thereto, the mixture was centrifuged at 400×g for 5 minutes to collect the primary cardiomyocytes from newborn rats. The cells were suspended in Medium 199 containing 10% fetal calf serum. The suspension was then filtered through a cell strainer. An aliquot of the resulting cardiomyocyte suspension was taken and 0.3% trypan blue was added thereto. The mixture was mildly mixed and the number of cardiomyocytes was counted with a hemocytometer.
The primary cardiomyocytes from the newborn rats were suspended at a density of 3×10^6 cells/ml in Medium 199 containing 10% fetal calf serum. The suspension was plated onto a 96-well plate in a volume of 0.1 ml/well, followed by incubation in a CO2 incubator set at 5% CO2 and 37° C. for a day. After the plate was stirred with a micromixer (manufactured by Taiyo Kagaku Kogyo), the medium was exchanged 3 times with serum-free Medium 199 and then test compounds were added thereto. The cells were cultured for further 4 days to induce apoptosis. Subsequently, fetal calf serum was added thereto at a concentration of 10%, and the cells were further cultured for about 17 hours in a CO2 incubator set at 5% CO2 and 37° C. The number of viable cells was determined with Cell Counting Kit (manufactured by Dojin Chemical Laboratory) using as a chromogen WST-8 [2-(2-methoxy-4-nitrophenyl)3-(4-nitrophenyl)-5-(2,4-disulfophenyl)-2H-tetrazolium, monosodium salt] to assess the cardiomyocyte apoptosis inhibitory activity.
The experiment described above was triplicated in an independent manner.
In the TABLE, the minimum effective concentration is defined as the concentration of the test compound required to increase the mean viable cell number by 50% as compared to that in the absence of any test compound.
A general note: Formazan colour is commonly taken as a measure of viable cells.

Data set [2] deals with antioxidant response element (ARE) of rat glutathione S-transferase Ya subunit gene in Rat H9c2 cells. The data set is described as follows: Antioxidant response element (ARE)-dependent transcriptional activation activity (luciferase reporter). The format is cell-based. As to conditions: concentration causing luminescence of 200% of test compound-free group (100%); H9c2 cells with pGL3-ARE reporter, about 24 hours. From the text:
Antioxidant Response Element (ARE)-dependent Transcriptional Activation Activity
(1) Construction of Luciferase Reporter Vector Bearing Antioxidant Response Element (ARE)
ARE-containing luciferase reporter vectors pGL3-ARE and pGL3-ARE 694G were constructed based on The Journal of Biological Chemistry, 266, 11632, 1991 and The Journal of Biological Chemistry, 275, 40134, 2000, by synthesizing ARE (SEQ ID NO: 1) for rat glutathione S-transferase Ya subunit gene and mutated ARE, i.e., mutant ARE (A694G)(SEQ ID NO: 2) oligonucleotide and then transfecting them to the NheI/BglII site of pGL3-Promoter Vector (manufactured by Promega Corp.), respectively.
(2) Assay for Antioxidant Response Element (ARE)-dependent Transcriptional Activation Activity
Rat H9c2 cells were suspended in Dulbecco's modified Eagle's medium (10% FBS, D-MEM medium) containing […] heat-inactivated fetal calf serum in 7×10^4 cells/ml. […] After allowing to stand for 30 minutes, fluorescence levels by luciferase were determined using a WALLAC ARVO SX (manufactured by Perkin-Elmer). Taking the emitted luminescence of test compound-free group as 100%, the ARE-dependent transcriptional activation was shown in terms of the concentration of test compound, which caused to emit the luminescence of 200% (EC200: μM).

The melting point is the temperature of the solid-liquid transition. In the case of `O=c1nc(C2CC2)sc2ccccc12` [Example 1, 2-Cyclopropyl-4H-1,3-benzothiazin-4-one], the melting point is 119.5 to 119.6 °C. Moreover, the minimal effective concentration in data set [1] came out at 0.072 µM.
The like results for `O=C1NC(=C2CCC2)Sc2ccccc21` [Example 2, 2-Cyclobutylidene-2,3-dihydro-4H-1,3-benzothiazin-4-one] were, in that order, 146.7 to 149.4 °C and 0.02 µM.
The corresponding values for `O=C1NC(=C2CCCC2)Sc2ccccc21` [Example 3, 2-Cyclopentylidene-2,3-dihydro-4H-1,3-benzothiazin-4-one] are 190.4 to 191.4 °C and 0.047 µM.
The corresponding values for `O=C1NC(=C2CCCCC2)Sc2ccccc21` [Example 4, 2-Cyclohexylidene-2,3-dihydro-4H-1,3-benzothiazin-4-one] are 145.6 to 147.1 °C and 0.042 µM.
Molecule `CC(C)=C1NC(=O)c2ccccc2S1` [Example 5, 2-Isopropylidene-2,3-dihydro-4H-1,3-benzothiazin-4-one] showed a melting point of 187.1 to 188.3 °C.
On the same count and under the same terms, with `O=C(O)CCc1cccc(-c2nc(=O)c3ccccc3s2)c1` [Example 7, 3-[3-(4-Oxo-4H-1,3-benzothiazin-2-yl)phenyl]propionic acid] the figure was 179.8 to 180.2 °C.
On to `N#Cc1cccc(-c2nc(=O)c3ccccc3s2)c1` [Example 8, 2-(3-Cyanophenyl)-4H-1,3-benzothiazin-4-one], for which the melting point fell in the range of 199.6 to 199.7 °C. Moreover, the minimal effective concentration in data set [1] is 0.025 µM.
Molecule `O=c1nc(-c2ccc(C(F)(F)F)cc2)sc2ccccc12` [Example 9, 2-(4-Trifluoromethylphenyl)-4H-1,3-benzothiazin-4-one] had a melting point of 122.5 to 122.6 °C. Moreover, in data set [1], the minimal effective concentration was 0.088 µM.
The corresponding values for `CC(=O)c1ccc(-c2nc(=O)c3ccccc3s2)cc1` [Example 10, 2-(4-Acetylphenyl)-4H-1,3-benzothiazin-4-one] are 197.5 to 197.6 °C and 0.062 µM.
Turning to `O=c1nc(-c2cccc(Br)c2)sc2ccccc12` [Example 11, 2-(3-Bromophenyl)-4H-1,3-benzothiazin-4-one], the melting point lay within 161.6 to 161.7 °C.
The same measure, in the same setting: with `O=c1nc(-c2ccc(O)cc2)sc2ccccc12` [Example 12, 2-(4-Hydroxyphenyl)-4H-1,3-benzothiazin-4-one] the figure was 275 °C (dec.).
For the molecule `CC(=O)Nc1cccc(-c2nc(=O)c3ccccc3s2)c1` [Example 13, N-[3-(4-Oxo-4H-1,3-benzothiazin-2-yl)phenyl]acetamide], the minimal effective concentration in data set [1] worked out at 0.062 µM.
`CC(=O)Nc1ccc(-c2nc(=O)c3ccccc3s2)cc1` [Example 16, N-[4-(4-Oxo-4H-1,3-benzothiazin-2-yl)phenyl]acetamide] showed a melting point of 231.4 to 231.5 °C. Further, the minimal effective concentration in data set [1] was found to be 0.021 µM.
Regarding `O=c1nc(-c2ccc(-c3ccccc3)cc2)sc2ccccc12` [Example 18, 2-(1,1′-Biphenyl-4-yl)-4H-1,3-benzothiazin-4-one], the minimal effective concentration in data set [1] turned out to be 0.083 µM.
Turning to `O=c1nc(-c2ccccc2C(F)(F)F)sc2ccccc12` [Example 19, 2-(2-Trifluoromethylphenyl)-4H-1,3-benzothiazin-4-one], the melting point lay in the range of 139.6 to 139.8 °C.
`O=c1nc(-c2cccc(C(F)(F)F)c2)sc2ccccc12` [Example 20, 2-(3-Trifluoromethylphenyl)-4H-1,3-benzothiazin-4-one] showed a melting point of 114.6 to 114.7 °C. The same molecule yielded an EC200 in data set [2] of 1.5 µM.
The molecule `COC(=O)c1cccc(-c2nc(=O)c3ccccc3s2)c1` [Example 21, Methyl 3-(4-oxo-4H-1,3-benzothiazin-2-yl)benzoate] returned a melting point of 164.3 to 164.4 °C.
On the same count and under the same terms, the figure for `COC(=O)C(Cc1cccc(-c2nc(=O)c3ccccc3s2)c1)NC(=O)c1ccccc1` (centres unmarked) [Example 22, Methyl 2-(benzoylamino)-3-[3-(4-oxo-4H-1,3-benzothiazin-2-yl)phenyl]propionate] is 130.9 to 131 °C; for `Cc1cc(Cl)ccc1-c1nc(=O)c2ccccc2s1` [compound 14, 2-(4-Chloro-2-methylphenyl)-4H-1,3-benzothiazin-4-one] it is 134.1 to 134.2 °C.
On the same count and under the same terms, with `CCNc1cc(-c2nc(=O)c3ccccc3s2)ccc1C(=O)OC` [compound 15, Methyl 2-(ethylamino)-4-(4-oxo-4H-1,3-benzothiazin-2-yl)benzoate] the figure was 170.8 to 178.2 °C.
